Data on three compounds can be found in patent US20240116921A1, “LACTAM (HETERO)[…] DERIVATIVES AS INHIBITORS OF ERBB2” (EnLiven Therapeutics, Inc., priority 2020, published 2024).

Each structure is given as a SMILES string. pIC50: −log10 of the molar value. Like-named read-outs stand apart in the source and are kept apart here.

Experiment [1] addresses Ba/F3 ERBB2 A775_G776insYVMA (Homo sapiens, UniProt P04626, DUP772-775, cells depend on it). The experiment can be described thus: Cell viability assay, Ba/F3 ERBB2 A775_G776insYVMA. Type of experiment: cell-based, mouse. The conditions noted are these: Ba/F3 ERBB2 A775_G776insYVMA cells, 72 hours, CellTiter Glo; Tables B2-B4; read-out: IC50, cell viability, Ba/F3 ERBB2 A775_G776insYVMA. An outline of the steps: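 IL-3-independent Ba/F3 lines stably expressing the human ERBB2 insertion mutants were seeded at 3000 cells/well and exposed to compounds for 72 h at 37 °C, 5% CO2. Viability was read as ATP by CellTiter-Glo luminescence. Curves were fitted by sigmoidal nonlinear regression.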
(In ATP-based viability assays light output follows the ATP content of the culture.)

Another experiment addresses Ba/F3 ERBB2-V777L (Homo sapiens, UniProt P04626, V777L, cells depend on it). The experiment in a line: Cell viability assay, Ba/F3 ERBB2-V777L. Type of experiment: cell-based, mouse. The conditions noted are these: 72 hours, CellTiter Glo, read-out: IC50, cell viability, Ba/F3 ERBB2-V777L. The procedure:
(§1) Cells were treated with compounds, and cell viability was measured as a metric of kinase inhibition.
(§2) The Ba/F3 cell line is IL-3-dependent mouse cell line derived from the C3H mouse strain. Ba/F3 cell lines were engineered to express human ERBB2 or EGFR kinases, rendering the cells IL-3 independent. The lines were generated via retroviral transduction utilizing a Moloney murine leukemia virus (MMLV) promoter, and constructs are stably integrated into the cell genome. The sequences of the ERBB2 and EGFR genes used were NCBI Reference Sequences NM_004448.3 and NM_005228.3, respectively.
(§3) Similarly, Ba/F3 cell lines engineered to express EGFR, ERBB2, or ERBB2 mutants were grown, harvested, counted and seeded at 3000 cells per well in 96-well plates. A subset of wells contained media only (low control, “LC”).
(§4) Table B1 provides the growth media and number of cells seeded per well for the each cell line.
(§5) Plates were placed in a 37° C., 5% CO2 incubator for 72 hours. Plates were then removed from the incubator and equilibrated for 15 minutes at room temperature. 40 μl of CellTiter Glo reagent (Promega) was added to measure the relative level of metabolically active cells by quantifying intracellular ATP concentrations. Plates were incubated for 30 minutes at room temperature, and luminescence was measured. Percent viability was normalized to a vehicle control only using the following formula: % viability=100×(Lumsample−LumLC)/(LumHC−Lum^LC). Graphical curves were fitted using a nonlinear regression model with a sigmoidal dose response.

In experiment [2] the target is Ba/F3 ERBB2-P780_Y781insGSP (Homo sapiens, UniProt P04626, DUP778-780, cells depend on it). The experiment in a line: Cell viability assay, Ba/F3 ERBB2-P780_Y781insGSP. Type of experiment: cell-based, mouse. The settings on record: 72 hours, CellTiter Glo, read-out: IC50, cell viability, Ba/F3 ERBB2-P780_Y781insGSP. The procedure:
as §1, §2, §3, §4
Plates were placed in a 37° C., 5% CO2 incubator for 72 hours. Plates were then removed from the incubator and equilibrated for 15 minutes at room temperature. 40 μl of CellTiter Glo reagent (Promega) was added to measure the relative level of metabolically active cells by quantifying intracellular ATP concentrations. Plates were incubated for 30 minutes at room temperature, and luminescence was measured. […] Graphical curves were fitted using a nonlinear regression model with a sigmoidal dose response.

A further experiment addresses Ba/F3 ERBB2-L755S (Homo sapiens, UniProt P04626, L755S, cells depend on it). The experiment in a line: Cell viability assay, Ba/F3 ERBB2-L755S. Type of experiment: cell-based, mouse. The conditions noted are these: 72 hours, CellTiter Glo, read-out: IC50, cell viability, Ba/F3 ERBB2-L755S. How it is done:
as §1, §2, §3, §4, §5

The target of the next experiment is Ba/F3 ERBB2 wt (Homo sapiens, UniProt P04626). The experiment in a line: Cell viability assay, Ba/F3 ERBB2 wt. Type of experiment: cell-based, mouse. The conditions noted are these: Ba/F3 ERBB2 wt cells, 72 hours, CellTiter Glo; read-out: IC50, cell viability, Ba/F3 ERBB2 wt. How it is done:
as §1, §2, §3, §4, §5

The next experiment addresses Ba/F3 ERBB2-L869R (Homo sapiens, UniProt P04626, L869R, cells depend on it). The experiment in a line: Cell viability assay, Ba/F3 ERBB2-L869R. Type of experiment: cell-based, mouse. The settings on record: 72 hours, CellTiter Glo, read-out: IC50, cell viability, Ba/F3 ERBB2-L869R. The procedure:
as §1, §2, §3, §4, §5

Another experiment has as its target Ba/F3 ERBB2-T798M (Homo sapiens, UniProt P04626, T798M, cells depend on it). The experiment in a line: Cell viability assay, Ba/F3 ERBB2-T798M. Type of experiment: cell-based, mouse. The settings on record: 72 hours, CellTiter Glo, read-out: IC50, cell viability, Ba/F3 ERBB2-T798M. The procedure:
as §1, §2, §3, §4, §5

The target of another experiment is Ba/F3 ERBB2-G776VC (Homo sapiens, UniProt P04626, DELINS776-776VC, cells depend on it). The experiment in a line: Cell viability assay, Ba/F3 ERBB2-G776VC. The class given is cell-based, mouse. The settings on record: 72 hours, CellTiter Glo, read-out: IC50, cell viability, Ba/F3 ERBB2-G776VC. The procedure: as §1, §2, §3, §4, §5
Ba/F3 ERBB2-G776VC, sequence (P04626 with tags, fused parts or gaps DELINS776-776VC): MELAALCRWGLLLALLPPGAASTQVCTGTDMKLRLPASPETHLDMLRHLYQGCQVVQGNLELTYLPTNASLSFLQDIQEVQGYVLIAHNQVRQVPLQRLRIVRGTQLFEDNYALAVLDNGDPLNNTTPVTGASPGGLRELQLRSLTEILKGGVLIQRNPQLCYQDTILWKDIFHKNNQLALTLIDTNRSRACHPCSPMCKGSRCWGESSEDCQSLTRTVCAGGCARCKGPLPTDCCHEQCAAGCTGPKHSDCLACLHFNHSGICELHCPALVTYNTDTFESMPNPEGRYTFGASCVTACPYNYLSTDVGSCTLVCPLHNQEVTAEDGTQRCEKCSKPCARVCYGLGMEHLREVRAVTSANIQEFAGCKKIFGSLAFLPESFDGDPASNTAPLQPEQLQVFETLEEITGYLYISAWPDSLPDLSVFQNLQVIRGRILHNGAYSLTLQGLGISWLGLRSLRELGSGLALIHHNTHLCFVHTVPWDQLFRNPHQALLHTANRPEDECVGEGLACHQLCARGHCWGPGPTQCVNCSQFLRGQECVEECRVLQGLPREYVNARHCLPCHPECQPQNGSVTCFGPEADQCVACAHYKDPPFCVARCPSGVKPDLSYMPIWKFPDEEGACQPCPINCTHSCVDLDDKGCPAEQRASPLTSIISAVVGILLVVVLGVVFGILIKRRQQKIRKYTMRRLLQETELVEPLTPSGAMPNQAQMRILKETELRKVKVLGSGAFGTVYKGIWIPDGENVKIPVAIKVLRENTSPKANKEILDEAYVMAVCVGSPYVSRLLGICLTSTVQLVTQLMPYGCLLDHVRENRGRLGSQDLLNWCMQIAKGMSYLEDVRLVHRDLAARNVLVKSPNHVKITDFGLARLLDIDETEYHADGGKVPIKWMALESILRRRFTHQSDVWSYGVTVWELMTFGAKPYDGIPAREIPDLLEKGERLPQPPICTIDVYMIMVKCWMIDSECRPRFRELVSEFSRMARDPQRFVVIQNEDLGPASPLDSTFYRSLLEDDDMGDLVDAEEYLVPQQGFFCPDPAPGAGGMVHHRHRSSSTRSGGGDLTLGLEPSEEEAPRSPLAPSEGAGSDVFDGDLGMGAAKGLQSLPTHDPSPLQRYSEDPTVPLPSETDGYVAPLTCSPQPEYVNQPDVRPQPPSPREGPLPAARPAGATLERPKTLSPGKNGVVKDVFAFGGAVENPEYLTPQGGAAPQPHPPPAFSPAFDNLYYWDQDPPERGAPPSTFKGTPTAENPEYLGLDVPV
For another experiment, the system named is A431. The experiment in a line: Cell viability assay (CellTiter Glo), A431. The class given is cell-based. The settings on record: Homo sapiens, A-431, A431 cells, 72 hours.
The subject of a further experiment is BT-474. The experiment can be described thus: Cell viability assay (CellTiter Glo), BT-474. The class given is cell-based. The conditions noted are these: Homo sapiens, read-out: IC50, cell viability, BT-474.
In experiment [3] the target is Ba/F3 ERBB2-V777_G778insGC (Homo sapiens, UniProt P04626, INS778CG, cells depend on it). The experiment in a line: Cell viability assay, Ba/F3 ERBB2-V777_G778insGC. Type of experiment: cell-based, mouse. The conditions noted are these: 72 hours, CellTiter Glo, read-out: IC50, cell viability, Ba/F3 ERBB2-V777_G778insGC. The procedure:
as §1, §2, §3, §4, §5

For a further experiment, the system named is MDA-MB-175VII. The experiment in a line: Cell viability assay (CellTiter Glo), MDA-MB-175VII. Type of experiment: cell-based. The settings on record: Homo sapiens, read-out: IC50, cell viability, MDA MB 175VII. The procedure:
as §1, §2, §3, §4, §5

In another experiment the target is Ba/F3 EGFR wt (Homo sapiens, UniProt P00533). The experiment in a line: Cell viability assay, Ba/F3 EGFR wt. Type of experiment: cell-based, mouse. The settings on record: Ba/F3 EGFR wt cells, 72 hours, CellTiter Glo; read-out: IC50, cell viability, Ba/F3 EGFR wt. How it is done:
as §1, §2, §3, §4
Plates were placed in a 37° C., 5% CO2 incubator for 72 hours. Plates were then removed from the incubator and equilibrated for 15 minutes at room temperature. 40 μl of CellTiter Glo reagent (Promega) was added to measure the relative level of metabolically active cells by quantifying intracellular ATP concentrations. Plates were incubated for 30 minutes at room temperature, and luminescence was measured. […]

Ba/F3 ERBB2-L869R, sequence (P04626 whole entry L869R): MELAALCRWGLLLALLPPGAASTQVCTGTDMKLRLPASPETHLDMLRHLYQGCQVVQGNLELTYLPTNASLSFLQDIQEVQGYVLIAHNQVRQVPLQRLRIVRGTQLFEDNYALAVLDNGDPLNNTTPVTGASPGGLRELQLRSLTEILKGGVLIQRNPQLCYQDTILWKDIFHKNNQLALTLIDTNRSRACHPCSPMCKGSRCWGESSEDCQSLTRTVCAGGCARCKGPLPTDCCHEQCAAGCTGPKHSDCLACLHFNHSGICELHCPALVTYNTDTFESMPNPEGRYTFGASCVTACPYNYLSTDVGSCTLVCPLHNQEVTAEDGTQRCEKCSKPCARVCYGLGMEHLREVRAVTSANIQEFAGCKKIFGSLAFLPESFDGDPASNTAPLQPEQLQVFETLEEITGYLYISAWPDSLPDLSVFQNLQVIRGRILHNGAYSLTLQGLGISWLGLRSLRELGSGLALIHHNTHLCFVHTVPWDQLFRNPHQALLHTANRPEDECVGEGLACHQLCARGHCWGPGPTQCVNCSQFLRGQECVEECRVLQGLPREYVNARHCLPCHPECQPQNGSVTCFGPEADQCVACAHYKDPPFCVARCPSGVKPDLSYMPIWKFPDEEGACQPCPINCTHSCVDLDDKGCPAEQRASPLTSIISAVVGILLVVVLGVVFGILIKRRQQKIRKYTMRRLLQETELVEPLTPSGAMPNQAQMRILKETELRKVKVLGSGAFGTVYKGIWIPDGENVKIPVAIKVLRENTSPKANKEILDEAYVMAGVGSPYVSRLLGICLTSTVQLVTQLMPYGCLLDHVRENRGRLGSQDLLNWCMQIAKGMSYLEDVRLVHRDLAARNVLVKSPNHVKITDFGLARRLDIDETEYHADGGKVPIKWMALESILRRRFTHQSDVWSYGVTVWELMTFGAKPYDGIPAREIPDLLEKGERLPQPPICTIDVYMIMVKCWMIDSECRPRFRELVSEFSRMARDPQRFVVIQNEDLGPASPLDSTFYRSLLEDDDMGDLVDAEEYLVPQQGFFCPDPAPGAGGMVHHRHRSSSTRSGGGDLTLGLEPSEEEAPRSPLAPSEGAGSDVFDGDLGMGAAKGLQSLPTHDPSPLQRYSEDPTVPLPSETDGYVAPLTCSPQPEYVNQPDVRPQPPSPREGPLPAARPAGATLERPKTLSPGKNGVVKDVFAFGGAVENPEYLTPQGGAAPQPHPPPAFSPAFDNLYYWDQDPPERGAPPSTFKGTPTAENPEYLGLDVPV
Ba/F3 ERBB2-T798M, sequence (P04626 whole entry T798M): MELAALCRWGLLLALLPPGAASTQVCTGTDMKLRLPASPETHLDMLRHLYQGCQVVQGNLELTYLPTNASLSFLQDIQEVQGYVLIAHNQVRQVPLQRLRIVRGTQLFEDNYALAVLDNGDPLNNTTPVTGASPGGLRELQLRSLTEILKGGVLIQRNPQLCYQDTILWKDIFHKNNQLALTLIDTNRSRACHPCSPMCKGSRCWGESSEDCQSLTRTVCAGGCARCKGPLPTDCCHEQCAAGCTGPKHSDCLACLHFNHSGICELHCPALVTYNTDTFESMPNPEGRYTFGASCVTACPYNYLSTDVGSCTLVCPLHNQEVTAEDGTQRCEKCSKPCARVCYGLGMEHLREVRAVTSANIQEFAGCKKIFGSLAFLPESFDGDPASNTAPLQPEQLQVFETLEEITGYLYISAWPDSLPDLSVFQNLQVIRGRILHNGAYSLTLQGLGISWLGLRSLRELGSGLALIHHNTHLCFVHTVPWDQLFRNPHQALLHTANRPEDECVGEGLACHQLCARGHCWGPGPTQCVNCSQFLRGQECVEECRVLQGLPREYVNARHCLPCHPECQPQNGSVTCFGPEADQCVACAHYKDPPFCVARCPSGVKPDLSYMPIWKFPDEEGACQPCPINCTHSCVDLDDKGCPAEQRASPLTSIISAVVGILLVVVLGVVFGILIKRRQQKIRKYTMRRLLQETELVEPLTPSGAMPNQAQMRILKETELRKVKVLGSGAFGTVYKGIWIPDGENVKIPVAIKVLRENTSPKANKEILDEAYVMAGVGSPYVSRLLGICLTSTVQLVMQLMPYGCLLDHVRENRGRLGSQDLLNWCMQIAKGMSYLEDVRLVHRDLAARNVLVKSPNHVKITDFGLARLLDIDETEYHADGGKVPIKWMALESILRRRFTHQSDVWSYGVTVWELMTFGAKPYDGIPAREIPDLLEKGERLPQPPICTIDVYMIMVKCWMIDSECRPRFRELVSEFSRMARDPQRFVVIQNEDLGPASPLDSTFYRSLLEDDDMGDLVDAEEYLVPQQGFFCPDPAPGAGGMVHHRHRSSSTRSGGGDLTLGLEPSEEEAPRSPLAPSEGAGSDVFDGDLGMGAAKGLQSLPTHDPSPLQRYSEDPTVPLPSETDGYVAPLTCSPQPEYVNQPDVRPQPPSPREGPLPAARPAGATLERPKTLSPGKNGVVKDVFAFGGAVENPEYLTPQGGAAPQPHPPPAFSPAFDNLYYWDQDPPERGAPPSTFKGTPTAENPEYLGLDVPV
Ba/F3 ERBB2-V777L, sequence (P04626 whole entry V777L): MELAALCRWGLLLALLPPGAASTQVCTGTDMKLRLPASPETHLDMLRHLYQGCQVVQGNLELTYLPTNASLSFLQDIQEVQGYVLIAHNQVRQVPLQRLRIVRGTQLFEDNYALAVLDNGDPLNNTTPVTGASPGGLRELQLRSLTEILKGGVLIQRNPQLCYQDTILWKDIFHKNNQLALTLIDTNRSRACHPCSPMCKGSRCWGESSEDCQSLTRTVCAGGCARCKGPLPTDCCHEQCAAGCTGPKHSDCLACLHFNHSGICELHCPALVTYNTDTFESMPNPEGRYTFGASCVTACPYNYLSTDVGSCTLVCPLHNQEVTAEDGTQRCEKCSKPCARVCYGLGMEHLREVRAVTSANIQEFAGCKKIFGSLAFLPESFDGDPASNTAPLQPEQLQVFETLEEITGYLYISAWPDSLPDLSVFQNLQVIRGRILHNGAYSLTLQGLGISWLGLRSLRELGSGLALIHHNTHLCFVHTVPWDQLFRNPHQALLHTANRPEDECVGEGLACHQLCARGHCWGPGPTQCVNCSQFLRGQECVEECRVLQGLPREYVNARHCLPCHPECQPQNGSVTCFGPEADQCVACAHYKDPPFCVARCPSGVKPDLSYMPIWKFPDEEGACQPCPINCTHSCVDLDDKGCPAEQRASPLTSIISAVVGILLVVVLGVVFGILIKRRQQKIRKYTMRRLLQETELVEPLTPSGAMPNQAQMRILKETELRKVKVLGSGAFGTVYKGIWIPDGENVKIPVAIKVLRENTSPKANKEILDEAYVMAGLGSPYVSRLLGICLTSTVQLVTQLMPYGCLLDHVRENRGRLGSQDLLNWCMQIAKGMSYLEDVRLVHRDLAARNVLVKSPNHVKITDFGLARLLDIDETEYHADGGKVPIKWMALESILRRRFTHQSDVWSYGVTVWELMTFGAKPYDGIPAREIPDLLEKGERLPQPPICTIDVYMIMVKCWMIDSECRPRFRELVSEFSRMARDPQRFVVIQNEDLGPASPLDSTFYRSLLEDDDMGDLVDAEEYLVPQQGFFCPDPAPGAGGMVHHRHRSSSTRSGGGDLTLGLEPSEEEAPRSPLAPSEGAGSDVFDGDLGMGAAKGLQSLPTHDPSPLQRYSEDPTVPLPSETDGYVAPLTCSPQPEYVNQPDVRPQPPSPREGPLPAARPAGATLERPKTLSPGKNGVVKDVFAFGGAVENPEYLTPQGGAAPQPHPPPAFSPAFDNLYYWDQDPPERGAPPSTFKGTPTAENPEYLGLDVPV

One may read the pIC50 as the IC50 on a negative log10 scale, so that one unit is a factor of ten. Consider `C=C1CCN(c2ccc3ncnc(Nc4ccc(Oc5ccc(C)nc5)c(C)c4)c3c2)C1=O` [Compound 3, 1-[4-([3-methyl-4-[(6-methylpyridin-3-yl)oxy]phenyl]amino)quinazolin-6-yl]-3-methylidenepyrrolidin-2-one], for which the GI50 came out at 202 nM in experiment [1]; 4.7 nM at Ba/F3 ERBB2-V777L; 13 nM in experiment [2]; 172 nM on Ba/F3 ERBB2-L755S; 11 nM on Ba/F3 ERBB2 wt; 47 nM at Ba/F3 ERBB2-L869R. The GI50 amounted to 656 nM on Ba/F3 ERBB2-T798M, 40 nM at Ba/F3 ERBB2-G776VC and 3.8 nM in [3]. Further, the negative logarithm of the IC50 (pIC50) is 5.94 in the experiment with A431 and 7.71 in the experiment on BT-474 (BT-474 cells, 72 hours, CellTiter Glo).

Take `CCOc1cc2ncc(C#N)c(Nc3ccc(OCc4ccccn4)c(Cl)c3)c2cc1NC(=O)/C=C/CN(C)C` [Neratinib, neratinib, reference compound]: the negative-log IC50 (pIC50) in the experiment with MDA-MB-175VII (MDA-MB-175-VII, 72 h) is 8.15; in the experiment with BT-474 (BT-474, 72 h) it was 8.66.

`Cc1cc(Nc2ncnc3ccc(NC4=NC(C)(C)CO4)cc23)ccc1Oc1ccn2ncnc2c1` [Tucatinib, tucatinib, reference compound]: the pIC50 was 7.05 with MDA-MB-175VII (MDA MB 175VII cells, 72 hours, CellTiter Glo) and less than 5.00 in the experiment on A431. Further, the GI50 on Ba/F3 EGFR wt was greater than 10000 nM.
